Results taken from publication PMC5306062, “Pharmacology and toxicology of the novel investigational agent Cantrixil (TRX-E-002-1)” (Cancer Chemotherapy and Pharmacology, 2016).
Several values for one entry are separate records, joined by “and”; a condition that tells them apart may be missing. Equal values may be shown once.

Columns and labels:
[1] = system: chemo-resistant CD44+/MyD88+ OCSC clones; assay: Cell death in ovarian cancer stem cell clones; type: cell-based, human; conditions: grown separately or in co-cultures
Text: Tumour recurrence post-chemotherapy is caused by the regrowth of the surviving innately drug-resistant cancer stem cells that remain in tumour niches during and post-chemotherapy. The expansion of this chemo-resistant cancer cell population, coupled with upregulation of pro-survival pathways due to drug pressure, is thought to be responsible for the development of chemo-resistant recurrent disease. Further, the inherent heterogeneity of ovarian tumours consists of epithelial cells with varying potential for stemness, and a population of cancer cells with varying mesenchymal status and invasiveness potential. Therefore, to improve survival, a practical approach is the use of novel therapies that can induce cell death in these various subtypes of ovarian cancer cells. TRX-E-002-1 was assessed against ovarian cancer stem cell line OCSC2, characterised by their expression of stem cell markers including CD44 and […] [22]. A major characteristic of these cells is that they are drug resistant, able to form self-renewing spheroids in non-adherent culture, and recreate disseminated drug-resistant ovarian tumours that have a high degree of heterogeneity similar to the clinical profile observed in patients when inoculated into the peritoneal cavity of an immune-compromised mouse.

[2] = system: recurrent ovarian cancer model; assay: Recurrent ovarian cancer model after paclitaxel (OCSC2-inoculated mice); type: in vivo
Description: In vivo, TRX-E-002-1, formulated in 20% SBECD, was active in a disseminated ovarian cancer model and a recurrent ovarian cancer model in which tumour recurrence is investigated following initial treatment of the OCSC2-inoculated mice with paclitaxel. In both models, TRX-E-002-1 inhibited tumour growth following once daily intraperitoneal administration.
In the recurrent ovarian cancer model, once daily intraperitoneal administration of 100 mg/kg TRX-E-002-1 in 20% SBECD for 4 weeks inhibited tumour growth and reduced terminal tumour burden by 77%.

[3] = system: human Panc-1 pancreatic tumour cells implanted orthotopically; assay: Orthotopic model of pancreatic cancer; type: in vivo, female NOD-SCID mice; conditions: 100 mg/kg i.p. once daily in 20% SBECD, 18 consecutive days; p < 0.001
Description: Fig. 3 Efficacy of TRX-E-002-1 in an orthotopic model of pancreatic cancer. Female NOD-SCID mice were inoculated directly into the pancreas with PANC-1 human pancreatic epithelioid adenocarcinoma cells transfected with luciferase gene. Tumours were allowed to establish prior to treatment initiation. Animals were dosed with TRX-E-002-1 100 mg/kg i.p. for 18 consecutive days over which time tumour growth was monitored using bioluminescent imaging. Following euthanasia at the predetermined end-point, tumours were excised and weighed. Final tumour (plus pancreas) weights excised at the terminal time point. *p < 0.001

[4] = GLP telemetry cardiovascular study, intraperitoneal injection; type: in vivo, beagle dogs
Description: However, at concentrations of 0.1-10 μM, the drug increased surface expression of the hERG single mutant (hERG-SM), identifying it as a potential blocker of hERG channel activity. […] Potential cardiovascular responses to intraperitoneal injection of TRX-E-002-1 were investigated in a GLP-compliant telemetry study in beagle dogs. Four male dogs received vehicle (20% SBECD) or TRX-E-002-1 (1, 10 or 30 mg/kg) on four separate occasions in a Latin Square design. Blood pressure, heart rate, ECG parameters and body temperatures were continuously recorded from 30 min before dosing until at least 24 h after each dose.

[5] = system: micronucleated polychromatic erythrocytes (PCEs) in bone marrow; assay: Bone marrow micronucleus test; type: in vivo, ARC(S) Swiss mice; conditions: for frequency of micronucleated PCEs: female mice
Description: The assays were performed in compliance with GLP regulations.
The bone marrow micronucleus test was the in vivo part of the ICH genotoxicity testing battery and was conducted in ARC(S) Swiss mice. Eight groups of mice (10/sex/group) were given an intraperitoneal injection of vehicle (20% w/v SBECD) or Cantrixil at 50, 200 or 400 mg/kg and were killed 24 or 48 h later. Dimethyl-1,2 benzanthracene was used as the positive control. After preparation of the bone marrow cells, the number of micronucleated polychromatic erythrocytes (PCEs) was determined in 4000 PCEs per animal, and the proportion of PCEs in the total erythrocyte population in bone marrow was calculated from the examination of at least 500 erythrocytes as an index of bone marrow toxicity. […] The proportion of PCEs in the total erythrocyte population was decreased in both sexes at the 200 and 400 mg/kg doses at both kill times. TRX-E-002-1 is therefore considered clastogenic in this system at the described concentrations in vivo [the equivalent 200/400 mg/kg dose in a […] is 16.2 mg/kg (600 mg/m^2)/32.4 mg/kg (1200 mg/m^2) in a 60-kg human].

[6] = system: CYP2C9, CYP2C8, CYP2C19, CYP2B6, CYP3A4, CYP2D6, CYP2A6 and CYP1A2; assay: Inhibition of cytochrome P450 enzymes in human hepatic microsomes; type: in vitro ADME; conditions: liver microsomes, read-out: IC50 values, range over the CYP enzymes
Text: The potential for pharmacokinetic drug interactions resulting from inhibition of drug-metabolizing cytochrome P450 enzymes was investigated in human hepatic microsomes in vitro. TRX-E-002-1 inhibited multiple cytochrome P450 drug-metabolizing enzymes, including CYP2C9, CYP2C8, CYP2C19, CYP2B6, CYP3A4, CYP2D6, CYP2A6 and CYP1A2. […] In particular, the potential interaction between Cantrixil and paclitaxel, a CYP2C9 substrate frequently used in the treatment of ovarian cancer, needs to be considered.

[7] = 100 mg/kg i.p. once daily in 20% SBECD for 4 weeks

COc1cc([C@@H]2COc3c(ccc(O)c3C)[C@@H]2c2ccc(O)cc2)cc(OC)c1O [TRX-E-002-1, (+) cis-4-(para-hydroxyphenyl)-7,4′-dihydroxy-3′,5′-dimethoxy-8-methylisoflavan]
induction of cell death [1]: able to induce cell death | reduction of terminal tumour burden [2, 7]: 77% | tumour growth [2, 7]: inhibited | efficacy compared with paclitaxel ([2]; paclitaxel 12 mg/kg twice weekly): more effective | terminal pancreatic tumour burden [3]: significantly reduced | effect on QTc interval ([4]; 1, 10 or 30 mg/kg i.p., ECG telemetry): no effect | blood pressure and heart rate ([4]; 10 and/or 30 mg/kg i.p., not considered adverse): slight, transient increases | clastogenicity, overall conclusion ([5]; at the described concentrations in vivo): clastogenic | proportion of PCEs in the total erythrocyte population ([5]; both sexes, 200 and 400 mg/kg, both kill times): decreased | frequency of micronucleated PCEs ([5]; 200 mg/kg i.p., 24 and 48 h): significantly increased | frequency of micronucleated PCEs ([5]; 400 mg/kg i.p., 24 h): significantly increased | slight increases in frequency of micronucleated PCEs ([5]; male mice, 200 and 400 mg/kg i.p.): not statistically significant | IC50 [6]: 1.5 µM to 75 µM and 0.612 µg/mL to 30.6 µg/mL
